This is an account of results in patent US20260356830A1, “COMPOUNDS FOR MODULATING RET PROTEIN” (Bristol-Myers Squibb Company, priority 2022, published 2026).

The structures appear in SMILES notation.

This assay addresses T1, CCDC6-RET (Homo sapiens, UniProt P07949+Q16204+Q96SW2).
T1 construct: CCDC6 (natural N-terminal fusion partner, UniProt Q16204); endogenous in cells; host or cells: TPC-1 (parental, papillary thyroid carcinoma)
Briefly: Cellular RET degradation, AlphaLISA, TPC-1 cell line. The following applies: for Dmax: TPC1, human, 24 h, read-out: Cell Density TPC-1/CCDC6-RET Ymax %; for DC50: read-out: Cell Density TPC-1/CCDC6-RET DC50, half-maximal degradation concentration, TPC-1 (CCDC6-RET), 24 hrs. It counts as cell-based. The essentials:
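Luminescent AlphaLISA read of RET abundance in lysates after 24 h compound exposure (37 °C, 2% FBS DMEM) of CCDC6-RET-bearing TPC-1 cells. % degradation relative to DMSO (high) and media (low) controls, fitted to 4-parameter logistic curve for DC50 and Ymax.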
(Bead proximity is the source of the signal in Alpha formats.)

T1 sequence (Q16204+P07949 fused): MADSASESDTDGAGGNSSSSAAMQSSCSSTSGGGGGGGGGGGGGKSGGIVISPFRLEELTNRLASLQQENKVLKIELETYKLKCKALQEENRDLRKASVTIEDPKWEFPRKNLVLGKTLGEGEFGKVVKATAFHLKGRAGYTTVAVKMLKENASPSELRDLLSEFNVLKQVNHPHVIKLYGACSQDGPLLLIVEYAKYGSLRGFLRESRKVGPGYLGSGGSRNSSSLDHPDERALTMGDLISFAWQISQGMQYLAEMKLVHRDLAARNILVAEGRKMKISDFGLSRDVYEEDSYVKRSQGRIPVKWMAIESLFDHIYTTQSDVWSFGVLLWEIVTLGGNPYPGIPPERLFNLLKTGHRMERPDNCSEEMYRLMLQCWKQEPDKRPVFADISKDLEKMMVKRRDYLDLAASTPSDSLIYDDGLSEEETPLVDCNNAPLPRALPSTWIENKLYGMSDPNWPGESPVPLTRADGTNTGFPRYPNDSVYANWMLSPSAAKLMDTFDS
T1 sequence (Q96SW2 whole entry, the tested form may be a part): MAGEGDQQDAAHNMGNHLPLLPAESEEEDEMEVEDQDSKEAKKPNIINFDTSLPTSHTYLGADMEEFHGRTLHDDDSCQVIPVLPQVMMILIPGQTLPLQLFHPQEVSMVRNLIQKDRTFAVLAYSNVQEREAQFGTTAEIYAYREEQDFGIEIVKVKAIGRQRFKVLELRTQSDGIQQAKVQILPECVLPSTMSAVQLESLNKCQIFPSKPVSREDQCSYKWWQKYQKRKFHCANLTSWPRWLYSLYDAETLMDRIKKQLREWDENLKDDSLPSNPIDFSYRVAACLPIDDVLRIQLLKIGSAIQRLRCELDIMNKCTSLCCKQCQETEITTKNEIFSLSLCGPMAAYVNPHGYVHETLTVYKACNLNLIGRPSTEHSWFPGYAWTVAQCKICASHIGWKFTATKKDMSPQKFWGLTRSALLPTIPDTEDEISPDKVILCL
T1 sequence (Q16531 whole entry partner, the tested form may be a part): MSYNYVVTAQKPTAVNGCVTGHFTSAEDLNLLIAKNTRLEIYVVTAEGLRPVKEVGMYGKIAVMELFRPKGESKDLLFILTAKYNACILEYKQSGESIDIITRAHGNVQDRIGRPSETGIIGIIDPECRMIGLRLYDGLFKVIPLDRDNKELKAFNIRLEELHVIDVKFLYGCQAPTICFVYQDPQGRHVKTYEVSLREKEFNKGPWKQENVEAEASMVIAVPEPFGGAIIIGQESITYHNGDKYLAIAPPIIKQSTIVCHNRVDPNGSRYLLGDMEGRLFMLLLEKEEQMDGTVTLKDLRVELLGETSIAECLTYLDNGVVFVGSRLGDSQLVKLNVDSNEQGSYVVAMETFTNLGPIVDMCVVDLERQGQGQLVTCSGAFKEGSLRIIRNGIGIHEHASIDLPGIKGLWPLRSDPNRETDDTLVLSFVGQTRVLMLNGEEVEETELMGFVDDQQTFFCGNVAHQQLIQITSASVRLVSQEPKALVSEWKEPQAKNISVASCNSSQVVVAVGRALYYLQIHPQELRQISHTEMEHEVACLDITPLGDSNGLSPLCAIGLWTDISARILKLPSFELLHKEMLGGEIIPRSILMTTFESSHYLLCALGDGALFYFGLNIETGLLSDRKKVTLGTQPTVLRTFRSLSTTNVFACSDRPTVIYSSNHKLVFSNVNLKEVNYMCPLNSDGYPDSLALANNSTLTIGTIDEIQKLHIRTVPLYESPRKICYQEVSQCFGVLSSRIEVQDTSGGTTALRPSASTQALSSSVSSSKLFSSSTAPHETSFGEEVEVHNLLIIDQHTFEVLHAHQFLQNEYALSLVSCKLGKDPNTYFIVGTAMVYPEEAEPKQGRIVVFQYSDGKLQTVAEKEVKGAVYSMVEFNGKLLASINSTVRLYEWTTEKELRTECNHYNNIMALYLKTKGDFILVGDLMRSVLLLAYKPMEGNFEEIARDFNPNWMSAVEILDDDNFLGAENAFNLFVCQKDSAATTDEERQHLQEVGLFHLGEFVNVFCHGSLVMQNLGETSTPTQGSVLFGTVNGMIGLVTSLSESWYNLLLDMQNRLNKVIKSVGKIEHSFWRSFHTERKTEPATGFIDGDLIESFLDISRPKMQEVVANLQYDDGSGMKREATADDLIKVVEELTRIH

Regarding `CCOc1cc(-c2ccc(N3CCC(NC(=O)c4cc(F)ccc4F)(C(=O)NCCN4CCC(c5ccc6c(c5)C(=O)N(C5CCC(=O)NC5=O)C6)CC4)CC3)nc2)c2c(C#N)cnn2c1` (stereo not drawn) [Example 161, 1-(5-{3-cyano-6-ethoxypyrazolo[1,5-a]pyridin-4-yl}pyridin-2-yl)-4-(2,5-difluorobenzamido)-N-(2-{4-[2-(2,6-dioxopiperidin-3-yl)-3-oxo-2,3-dihydro-1H-isoindol-5-yl]piperidin-1-yl}ethyl)piperidine-4-carboxamide], the Dmax was 60 to 90% and the DC50 was under 2 nM.
With `CCOc1cc(-c2ccc(N3CCC(CN4CCN(CCOCCOCCC(=O)Nc5ccc6c(N7CCC(=O)NC7=O)nn(C)c6c5)CC4)(NC(=O)c4cc(F)ccc4F)CC3)nc2)c2c(C#N)cnn2c1` [Example 108, N-[1-(5-{3-cyano-6-ethoxypyrazolo[1,5-a]pyridin-4-yl}pyridin-2-yl)-4-[(4-{2-[2-(2-{[3-(2,4-dioxo-1,3-diazinan-1-yl)-1-methyl-1H-indazol-6-yl]carbamoyl}ethoxy)ethoxy]ethyl}piperazin-1-yl)methyl]piperidin-4-yl]-2,5-difluorobenzamide], the Dmax was in the range of 60 to 90% and the DC50 is 10 to 100 nM.
On the same counts, the results for `CCOc1cc(-c2ccc(N3CCC(CN4CCN(C(=O)CCCCCCN5CCN(c6ccc7c(c6)CN(C6CCC(=O)NC6=O)C7=O)CC5)CC4)CC3)nc2)c2c(C#N)cnn2c1` (stereo not drawn) [Example 125, 4-[6-(4-{[4-(7-{4-[2-(2,6-dioxopiperidin-3-yl)-1-oxo-2,3-dihydro-1H-isoindol-5-yl]piperazin-1-yl}heptanoyl)piperazin-1-yl]methyl}piperidin-1-yl)pyridin-3-yl]-6-ethoxypyrazolo[1,5-a]pyridine-3-carbonitrile] are over 90% and 10 to 100 nM.
In the same order, the values of `CCOc1cc(-c2ccc(N3CCC(CN4CCN(C(=O)CCCCCCCCNc5ccc6c(N7CCC(=O)NC7=O)nn(C)c6c5)CC4)(NC(=O)c4cc(F)ccc4F)CC3)nc2)c2c(C#N)cnn2c1` [Example 24, N-[1-(5-{3-cyano-6-ethoxypyrazolo[1,5-a]pyridin-4-yl}pyridin-2-yl)-4-{[4-(9-{[3-(2,4-dioxo-1,3-diazinan-1-yl)-1-methyl-1H-indazol-6-yl]amino}nonanoyl)piperazin-1-yl]methyl}piperidin-4-yl]-2,5-difluorobenzamide] are 60 to 90% and 10 to 100 nM.
With `CCOc1cc(-c2ccc(N3CCC(CN(C)C(=O)CCCCCCN4CCC(c5ccc6c(c5)CN(C5CCC(=O)NC5=O)C6=O)CC4)(NC(=O)c4cc(F)ccc4F)CC3)nc2)c2c(C#N)cnn2c1` (stereo not drawn) [Example 140, N-[1-(5-{3-cyano-6-ethoxypyrazolo[1,5-a]pyridin-4-yl}pyridin-2-yl)-4-[(7-{4-[2-(2,6-dioxopiperidin-3-yl)-1-oxo-2,3-dihydro-1H-isoindol-5-yl]piperidin-1-yl}-N-methylheptanamido)methyl]piperidin-4-yl]-2,5-difluorobenzamide], the Dmax was over 90% and the DC50 lay within 2 to 10 nM.
Consider `CCOc1cc(-c2ccc(N3CCC(COCCN4CCN(C(=O)CCCCN5CCN(c6ccc7c(c6)CN(C6CCC(=O)NC6=O)C7=O)CC5)CC4)(NC(=O)c4cc(F)ccc4F)CC3)nc2)c2c(C#N)cnn2c1` (stereo not drawn) [Example 35, N-[1-[5-(3-cyano-6-ethoxy-pyrazolo[1,5-a]pyridin-4-yl)-2-pyridyl]-4-[2-[4-[5-[4-[2-(2,6-dioxo-3-piperidyl)-1-oxo-isoindolin-5-yl]piperazin-1-yl]pentanoyl]piperazin-1-yl]ethoxymethyl]-4-piperidyl]-2,5-difluoro-benzamide], for which the Dmax was over 90% and the DC50 lay within 10 to 100 nM.
